Like-named read-outs stand apart in the source and are kept apart here.
Experiments:
[1] = tested on: A549 cells; assay: Resazurin cytotoxicity assay, A549, 72 h; details: read-out: IC50(nM): A549
Experimental: We used A549 lung cancer and HeLa cervical cancer cell lines for initial screening of the prodrugs.
Fi gure S9: Cell ular resazurin-based cytotoxi ci ty as s a y.
Dose -response curves were calculated from at least 27 incremental single concentrations over a range
of at least three log units. Individual experiments with annotated experiment numbers are shown for each prodrug

[2] = tested on: NCI-60 standardized human tumor cell line panel; assay: cells; format: cell-based; details: for NCI-60 screening: Log(GI50): log10 of GI50 in M; for NCI-60 screening: Log(RedIndex): log10 reductive index vs P-CC60

For `COc1cc2cc(C(=O)N3C[C@@H](CCl)c4c3cc(OC(=O)N(CCC(=O)N3CCN(C)CC3)[C@H]3CCSSC3)c3ccccc43)[nH]c2c(OC)c1OC` [P-SS60-CBI-TMI], the IC50 [1] was 180 nM, the “NCI-60 screening: Log(GI50)” value ([2]; 786-0 (RE) cell line) was -6.79 and the “NCI-60 screening: Log(RedIndex)” value ([2]; 786-0 (RE) cell line) was 1.02. For the same compound, the GI50 ([2]; 786-0 (RE) cell line, read-out: NCI-60 screening: Raw GI50) was 160 nM, the GI50 ([2]; 786-0, read-out: GI50) was 160 nM and the “NCI-60 screening: Log(GI50)” value ([2]; A498 (RE) cell line) was -6.6. The “NCI-60 screening: Log(RedIndex)” value ([2]; A498 (RE) cell line) was 1.04, the GI50 ([2]; A498 (RE) cell line, read-out: NCI-60 screening: Raw GI50) was 250 nM and the GI50 ([2]; A498, read-out: GI50) was 250 nM. The GI50 ([2]; A549/ATCC, read-out: GI50) was 150 nM, the “NCI-60 screening: Log(GI50)” value ([2]; ACHN (RE) cell line) was -7.25 and the “NCI-60 screening: Log(RedIndex)” value ([2]; ACHN (RE) cell line) was 0.94. The GI50 ([2]; ACHN (RE) cell line, read-out: NCI-60 screening: Raw GI50) was 56 nM, the GI50 ([2]; ACHN, read-out: GI50) was 56 nM and the GI50 ([2]; BT-549, read-out: GI50) was 230 nM. The “NCI-60 screening: Log(GI50)” value ([2]; CAKI-1 (RE) cell line) was -6.57, the “NCI-60 screening: Log(RedIndex)” value ([2]; CAKI-1 (RE) cell line) was 0.74 and the GI50 ([2]; CAKI-1 (RE) cell line, read-out: NCI-60 screening: Raw GI50) was 270 nM. For the same compound, the GI50 ([2]; CAKI-1, read-out: GI50) was 270 nM, the GI50 ([2]; CCRF-CEM, read-out: GI50) was 220 nM and the GI50 ([2]; COLO 205, read-out: GI50) was 340 nM. For the same compound, the “NCI-60 screening: Log(GI50)” value ([2]; DU-145 (PR) cell line) was -7.23, the “NCI-60 screening: Log(RedIndex)” value ([2]; DU-145 (PR) cell line) was 0.89 and the GI50 ([2]; DU-145, read-out: GI50) was 59 nM. The GI50 ([2]; EKVX, read-out: GI50) was 320 nM, the GI50 ([2]; HCC-2998, read-out: GI50) was 160 nM and the GI50 ([2]; HCT-15, read-out: GI50) was 260 nM. For the same compound, the GI50 ([2]; HCT-116, read-out: GI50) was 160 nM, the GI50 ([2]; HL-60(TB), read-out: GI50) was 120 nM and the GI50 ([2]; HOP-62, read-out: GI50) was 110 nM. The GI50 ([2]; HOP-92, read-out: GI50) was 350 nM, the GI50 ([2]; HT29, read-out: GI50) was 270 nM and the “NCI-60 screening: Log(GI50)” value ([2]; IGROV1 (OV) cell line) was -6.3. The “NCI-60 screening: Log(RedIndex)” value ([2]; IGROV1 (OV) cell line) was 0.66, the GI50 ([2]; IGROV1, read-out: GI50) was 500 nM and the GI50 ([2]; K-562, read-out: GI50) was 160 nM. For the same compound, the GI50 ([2]; KM12, read-out: GI50) was 270 nM, the GI50 ([2]; LOX IMVI, read-out: GI50) was 210 nM and the GI50 ([2]; M14, read-out: GI50) was 190 nM. The GI50 ([2]; MALME-3M, read-out: GI50) was 280 nM, the GI50 ([2]; MCF7, read-out: GI50) was 35 nM and the GI50 ([2]; MDA-MB-435, read-out: GI50) was 210 nM. For the same compound, the GI50 ([2]; MDA-MB-468, read-out: GI50) was 170 nM, the GI50 ([2]; MOLT-4, read-out: GI50) was 90 nM and the “GI50/IC50, mean” value ([2]; NCI-60 vs ProliFiler, 19 overlapping cell lines) was 4.0. The GI50 ([2]; NCI-H23, read-out: GI50) was 55 nM, the GI50 ([2]; NCI-H226, read-out: GI50) was 430 nM and the “NCI-60 screening: Log(GI50)” value ([2]; NCI-H460 (LC) cell line) was -7.25. The “NCI-60 screening: Log(RedIndex)” value ([2]; NCI-H460 (LC) cell line) was 0.96, the GI50 ([2]; NCI-H460 (LC) cell line, read-out: NCI-60 screening: Raw GI50) was 56 nM and the GI50 ([2]; NCI-H460, read-out: GI50) was 56 nM. The “NCI-60 screening: Log(GI50)” value ([2]; NCI-H522 (LC) cell line) was -6.58, the “NCI-60 screening: Log(RedIndex)” value ([2]; NCI-H522 (LC) cell line) was 0.81 and the GI50 ([2]; NCI-H522 (LC) cell line, read-out: NCI-60 screening: Raw GI50) was 260 nM. The GI50 ([2]; NCI-H522, read-out: GI50) was 260 nM, the “NCI-60 screening: Log(GI50)” value ([2]; OVCAR-3 (OV) cell line) was -6.63 and the “NCI-60 screening: Log(RedIndex)” value ([2]; OVCAR-3 (OV) cell line) was 0.95. The GI50 ([2]; OVCAR-3, read-out: GI50) was 240 nM, the “NCI-60 screening: Log(GI50)” value ([2]; OVCAR-4 (OV) cell line) was -6.33 and the “NCI-60 screening: Log(RedIndex)” value ([2]; OVCAR-4 (OV) cell line) was 0.7. The GI50 ([2]; OVCAR-4, read-out: GI50) was 460 nM, the “NCI-60 screening: Log(GI50)” value ([2]; OVCAR-5 (OV) cell line) was -6.51 and the “NCI-60 screening: Log(RedIndex)” value ([2]; OVCAR-5 (OV) cell line) was 1.22. The GI50 ([2]; OVCAR-5, read-out: GI50) was 310 nM, the “NCI-60 screening: Log(GI50)” value ([2]; OVCAR-8 (OV) cell line) was -6.73 and the “NCI-60 screening: Log(RedIndex)” value ([2]; OVCAR-8 (OV) cell line) was 0.95. For the same compound, the GI50 ([2]; OVCAR-8 (OV) cell line, read-out: NCI-60 screening: Raw GI50) was 190 nM, the GI50 ([2]; OVCAR-8, read-out: GI50) was 190 nM and the “NCI-60 screening: Log(GI50)” value ([2]; PC-3 (PR) cell line) was -6.14. For the same compound, the “NCI-60 screening: Log(RedIndex)” value ([2]; PC-3 (PR) cell line) was 0.64, the GI50 ([2]; PC-3, read-out: GI50) was 720 nM and the GI50 ([2]; RPMI-8226, read-out: GI50) was 220 nM. The “NCI-60 screening: Log(GI50)” value ([2]; RXF 393 (RE) cell line) was -6.83, the “NCI-60 screening: Log(RedIndex)” value ([2]; RXF 393 (RE) cell line) was 0.85 and the GI50 ([2]; RXF 393 (RE) cell line, read-out: NCI-60 screening: Raw GI50) was 150 nM. For the same compound, the GI50 ([2]; RXF 393, read-out: GI50) was 150 nM, the GI50 ([2]; SF-268, read-out: GI50) was 190 nM and the GI50 ([2]; SF-295, read-out: GI50) was 140 nM. The GI50 ([2]; SF-539, read-out: GI50) was 170 nM, the GI50 ([2]; SK-MEL-5, read-out: GI50) was 170 nM and the GI50 ([2]; SK-MEL-28, read-out: GI50) was 290 nM. For the same compound, the “NCI-60 screening: Log(GI50)” value ([2]; SK-OV-3 (OV) cell line) was -6.58, the “NCI-60 screening: Log(RedIndex)” value ([2]; SK-OV-3 (OV) cell line) was 0.91 and the GI50 ([2]; SK-OV-3 (OV) cell line, read-out: NCI-60 screening: Raw GI50) was 260 nM. The GI50 ([2]; SK-OV-3, read-out: GI50) was 260 nM, the “NCI-60 screening: Log(GI50)” value ([2]; SN12C (RE) cell line) was -6.54 and the “NCI-60 screening: Log(RedIndex)” value ([2]; SN12C (RE) cell line) was 0.62. It also gave a GI50 ([2]; SN12C (RE) cell line, read-out: NCI-60 screening: Raw GI50) of 290 nM, a GI50 ([2]; SN12C, read-out: GI50) of 290 nM and a GI50 ([2]; SNB-19, read-out: GI50) of 250 nM. For the same compound, the GI50 ([2]; SR, read-out: GI50) was 34 nM, the GI50 ([2]; SW-620, read-out: GI50) was 220 nM and the GI50 ([2]; T-47D, read-out: GI50) was 700 nM. The “NCI-60 screening: Log(GI50)” value ([2]; TK-10 (RE) cell line) was -5.47 and the “NCI-60 screening: Log(RedIndex)” value ([2]; TK-10 (RE) cell line) was -0.07.

From article PMC10141580, “Cyclic Dichalcogenides Extend the Reach of Bioreductive Prodrugs to Harness Thiol/Disulfide Oxidoreductases: Applications to seco-Duocarmycins Targeting the Thioredoxin System” (ACS Central Science, 2023)
